Holding throughout (experiment): NCI-60 cell line screen, 48 h
The subject of assay [1] is SF-268 CNS.
Assay [2] concerns SK-OV-3 ovarian.
Assay [3] deals with SK-MEL-2 melanoma.
For assay [4], the system named is HCT-15 colon.
In assay [5] the test system is MCF7 breast.
Assay [6] has as its system A498 renal.
For assay [7], the system named is MDA-MB-231 breast.
Assay [8] concerns UACC-62 melanoma.

Molecules are shown by their SMILES.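 Compound exposure: 48 hours, 5 concentrations, 96-well plates. GI50 is the concentration that inhibits growth by half. TGI: total growth inhibition.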 A value given as a limit tells only on which side of the number the result lay.

On to `CCN(CC)CCN1C(=O)c2c(c(C)c3c(oc4cc(O)ccc43)c2C)C1=O`, for which the GI50 in assay [1] was 1740 nM; in assay [2] it was 1.83 µM; in assay [3], 2.35 µM; in assay [4] it was 1.69 µM; in assay [5] it was 1650 nM; in assay [6], 1.69 µM. Also, the GI50 was 1.74 µM in assay [7] and 1580 nM in assay [8]. Besides, the TGI in assay [1] was found to be 3.78 µM; in assay [2], 3.36 µM; in assay [3], 5.27 µM; in assay [4], 3.32 µM; in assay [5] it was 3.32 µM; in assay [6] it was 3.12 µM. Besides, the values for the TGI in assay [7] and in assay [8] were 3.36 µM and 2.96 µM, respectively.
As to `S=c1nc[nH]c2c1ncn2Cc1ccco1`, the TGI in assay [1], in assay [2], in assay [3], in assay [4], in assay [5] and in assay [6] was over 100 µM in each case. Also, the TGI in assay [7] and in assay [8] was over 100 µM each time.
Turning to `O=C1NC(=O)/C(=C/C=C/c2ccccc2)S1`, the GI50 was 2960 nM in assay [1]; 38.7 µM in assay [2]; 24.4 µM in assay [3]; 9.3 µM in assay [4]; 1360 nM in assay [5]; 0.373 µM in assay [6]. For the same molecule, the GI50 in assay [7] is 30.4 µM; in assay [8] it was 490 nM. The TGI in assay [1] is over 70.2 µM; in assay [2] it was over 100 µM; in assay [3], over 79.3 µM; in assay [4], 51.7 µM; in assay [5], over 100 µM; in assay [6], 18.8 µM. Moreover, the TGI in assay [7] was over 100 µM; in assay [8], 27 µM.
Consider `S=c1nc(-c2ccccc2)oc(=NC2CCCCC2)n1C1CCCCC1`, for which the GI50 is 4720 nM in assay [1]; 5.05 µM in assay [2]; 4.51 µM in assay [3]; 3.35 µM in assay [4]; 3200 nM in assay [5]; 3.61 µM in assay [6]. The GI50 in assay [7] was 3.69 µM; in assay [8], 5920 nM. Further, the TGI is 17.6 µM in assay [1]; over 100 µM in assay [2]; 17.8 µM in assay [3]; 13.5 µM in assay [4]; 12.2 µM in assay [5]; 13 µM in assay [6]. Also, the figures for the TGI in assay [7] and in assay [8] were 15.9 µM and 21 µM, respectively.
On to `CC[C@@]1(O)C(=O)NCc2c1cc1n(c2=O)Cc2cc3ccccc3nc2-1`, for which the GI50 in assay [1] was 706 nM; in assay [2], 8.68 µM; in assay [3] it was over 100 µM; in assay [4] it was 25.8 µM; in assay [5], 823 nM; in assay [6] it was 3.95 µM. Further, the figures for the GI50 in assay [7] and in assay [8] were over 100 µM and 1870 nM, respectively. Moreover, the TGI was over 100 µM in assay [1]; over 100 µM in assay [2]; over 100 µM in assay [3]; over 100 µM in assay [4]; 53.1 µM in assay [6]; over 100 µM in assay [7]. The molecule further yielded a TGI in assay [8] of over 100 µM.
Turning to `C=C1CCC2C3(C)COC(c4ccc(NC(C)=O)cc4)OC3CCC2(C)C1C/C=C1/C(=O)OCC1O` (stereo not given), the GI50 in assay [1] was over 100000 nM; in assay [2] it was over 100 µM; in assay [3], 8.12 µM; in assay [4], 9.58 µM; in assay [5] it was 4580 nM; in assay [6], over 100 µM. Also, the GI50 in assay [7] is over 100 µM; in assay [8], over 100000 nM. Further, the TGI in assay [1], in assay [2], in assay [3], in assay [4], in assay [5] and in assay [6] was over 100 µM each time. In addition, the TGI in assay [7] and in assay [8] was over 100 µM in each case.
Take `Oc1ccc2oc3ncc(Cl)c(-c4ccccc4)c3c2c1`: the GI50 in assay [1] is over 100000 nM; in assay [2], over 100 µM; in assay [3], over 100 µM; in assay [4] it was over 100 µM; in assay [5] it was over 100000 nM; in assay [6], over 100 µM. Also, the GI50 in assay [7] was over 100 µM; in assay [8] it was over 100000 nM. Moreover, the TGI in assay [1], in assay [2], in assay [3], in assay [4], in assay [5] and in assay [6] was over 100 µM each time. Also, the TGI in assay [7] and in assay [8] was over 100 µM each time.
As to `COc1ccc(N2CCN(C(=O)c3ccccc3Nc3ccnc(C(F)(F)F)c3)CC2)cc1`, the GI50 in assay [1] is over 100000 nM; in assay [2], over 100 µM; in assay [3], over 100 µM; in assay [4], over 100 µM; in assay [5] it was 36400 nM; in assay [6] it was 12.2 µM. For the same molecule, the results for the GI50 in assay [7] and in assay [8] were over 100 µM and 30900 nM, respectively. The TGI in assay [1], in assay [2], in assay [3], in assay [4], in assay [5] and in assay [6] was over 100 µM each time. The TGI in assay [7] and in assay [8] was over 100 µM each time.
With `COc1ccc(SC2c3cc(OC)c(OC)cc3Oc3nc(N)c(C#N)c(N)c32)cc1` (stereo not given), the GI50 was 1550 nM in assay [1]; 1.81 µM in assay [2]; 1.36 µM in assay [3]; 0.973 µM in assay [4]; 454 nM in assay [5]; 1.42 µM in assay [6]. Further, the GI50 was 1.43 µM in assay [7] and 449 nM in assay [8]. The TGI in assay [1] was found to be 3.07 µM; in assay [2] it was 3.2 µM; in assay [3], 2.8 µM; in assay [4], 2.23 µM; in assay [5] it was 2.1 µM; in assay [6], 2.85 µM. For the same molecule, the TGI in assay [7] came to 2.81 µM; in assay [8] it was 1.74 µM.
